From patent EP0508726A1, “Novel process for the preparation of 9-deoxo-8a-aza-8a-homoerythromycin a and its 8a-alkyl derivatives” (MERCK & CO. INC., priority 1991, dated 1992)
≈ marks a conversion by molar mass, not a printed value.

How the values were obtained:
Experiment in all cases: liquid turbidimetric microtiter MIC determination
Format in all cases: cell-based
[1] = tested on: Steptococcus viridans CL 2943; conditions: brain heart infusion broth
Description: (§1) The antibacterial activities of compounds (IV), (X) against a panel of aerobic Gram positive and negative bacteria is shown in the following Table. The assay employs a liquid turbidimetric microtiter method for the determination of the minimum inhibitory concentration (MIC) in brain heart infusion broth. […] The MIC is generally not an absolute value but rather a concentration range that falls within a two-fold dilution limit. Generally twelve two-fold dilutions of the test compound are employed with the initial concentration set at 128 mcg/ml.

[2] = tested on: Staphylococcus epidermidis MB 5414; conditions: MB5414, brain heart infusion broth
Description: as §1

[3] = tested on: Enterococcus faecalis MB 5407; conditions: MB5407, brain heart infusion broth
Description: as §1

[4] = tested on: Enterococcus faecium MB 5416; conditions: MB5416, brain heart infusion broth
Description: as §1

[5] = tested on: Streptococcus pyogenes MB 54061; conditions: MB54061, brain heart infusion broth
Description: as §1

[6] = tested on: Staphylococcus aureus MB 2865; conditions: MB2865, brain heart infusion broth
Description: as §1

[7] = tested on: Escherichia coli MB 4926; conditions: MB4926, brain heart infusion broth
Description: as §1

[8] = tested on: Klebsiella pneumoniae MB 4005; conditions: MB4005, brain heart infusion broth
Description: as §1

[9] = tested on: Streptococcus pyogenes MB 2874; conditions: MB2874, brain heart infusion broth
Description: as §1

[10] = tested on: Escherichia coli MB 2884; conditions: MB2884, brain heart infusion broth
Description: as §1

[11] = tested on: Yersinia enterocoltica CL 1598; conditions: CL1598, brain heart infusion broth
Description: as §1

[12] = tested on: Streptococcus agalactiae CL 1343; conditions: CL1343, brain heart infusion broth
Description: as §1

[13] = tested on: Pseudomonas stutzeri MB 1231; conditions: Stutzerimonas stutzeri, MB1231, brain heart infusion broth
Description: as §1

[14] = tested on: Streptococcus pneumoniae CL 2883; conditions: CL2883, brain heart infusion broth
Description: as §1

[15] = tested on: Staphylococcus haemolyticus MB 5412; conditions: MB5412, brain heart infusion broth
Description: as §1

MIC [1] | MIC [2] | MIC [3] | MIC [4] | MIC [5] | MIC [6] | MIC [7] | MIC [8] | MIC [9] | MIC [10] | MIC [11] | MIC [12] | MIC [13] | MIC [14] | Compound | MIC [15]
8 µg/mL (≈ 10.9 µM) | 1 µg/mL (≈ 1.36 µM) | 8 µg/mL (≈ 10.9 µM) | 0.25 µg/mL (≈ 0.34 µM) | 128 µg/mL (≈ 174 µM) | 0.5 µg/mL (≈ 0.68 µM) | 2 µg/mL (≈ 2.72 µM) | 64 µg/mL (≈ 87.1 µM) | 0.06 µg/mL (≈ 0.0816 µM) | 4 µg/mL (≈ 5.44 µM) | 8 µg/mL (≈ 10.9 µM) | ≤ 0.06 µg/mL | ≤ 0.06 µg/mL | 0.06 µg/mL (≈ 0.0816 µM) | CC[C@H]1OC(=O)[C@H](C)[C@@H](O[C@H]2C[C@@](C)(OC)[C@@H](O)[C@H](C)O2)[C@H](C)[C@@H](O[C@@H]2O[C@H](C)C[C@H](N(C)C)[C@H]2O)[C@](C)(O)C[C@@H](C)NC[C@H](C)[C@@H](O)[C@]1(C)O [(IV), 9-Deoxo-8a-aza-8a-homoerythromycin A] | 0.5 µg/mL (≈ 0.68 µM)
1 µg/mL (≈ 1.34 µM) | 1 µg/mL (≈ 1.34 µM) | 4 µg/mL (≈ 5.34 µM) | 0.25 µg/mL (≈ 0.334 µM) | 128 µg/mL (≈ 171 µM) | 0.5 µg/mL (≈ 0.668 µM) | ≤ 0.06 µg/mL | 2 µg/mL (≈ 2.67 µM) | ≤ 0.06 µg/mL | 1 µg/mL (≈ 1.34 µM) | 2 µg/mL (≈ 2.67 µM) | ≤ 0.06 µg/mL | ≤ 0.06 µg/mL | ≤ 0.06 µg/mL | CC[C@H]1OC(=O)[C@H](C)[C@@H](O[C@H]2C[C@@](C)(OC)[C@@H](O)[C@H](C)O2)[C@H](C)[C@@H](O[C@@H]2O[C@H](C)C[C@H](N(C)C)[C@H]2O)[C@](C)(O)C[C@@H](C)N(C)C[C@H](C)[C@@H](O)[C@]1(C)O [(X), 9-Deoxo-8a-methyl-8a-aza-8a-homoerythromycin A] | 0.5 µg/mL (≈ 0.668 µM)
